The assay has as its target T1, human MPO (Homo sapiens, UniProt P05164).
T1 sequence (P05164 49-745): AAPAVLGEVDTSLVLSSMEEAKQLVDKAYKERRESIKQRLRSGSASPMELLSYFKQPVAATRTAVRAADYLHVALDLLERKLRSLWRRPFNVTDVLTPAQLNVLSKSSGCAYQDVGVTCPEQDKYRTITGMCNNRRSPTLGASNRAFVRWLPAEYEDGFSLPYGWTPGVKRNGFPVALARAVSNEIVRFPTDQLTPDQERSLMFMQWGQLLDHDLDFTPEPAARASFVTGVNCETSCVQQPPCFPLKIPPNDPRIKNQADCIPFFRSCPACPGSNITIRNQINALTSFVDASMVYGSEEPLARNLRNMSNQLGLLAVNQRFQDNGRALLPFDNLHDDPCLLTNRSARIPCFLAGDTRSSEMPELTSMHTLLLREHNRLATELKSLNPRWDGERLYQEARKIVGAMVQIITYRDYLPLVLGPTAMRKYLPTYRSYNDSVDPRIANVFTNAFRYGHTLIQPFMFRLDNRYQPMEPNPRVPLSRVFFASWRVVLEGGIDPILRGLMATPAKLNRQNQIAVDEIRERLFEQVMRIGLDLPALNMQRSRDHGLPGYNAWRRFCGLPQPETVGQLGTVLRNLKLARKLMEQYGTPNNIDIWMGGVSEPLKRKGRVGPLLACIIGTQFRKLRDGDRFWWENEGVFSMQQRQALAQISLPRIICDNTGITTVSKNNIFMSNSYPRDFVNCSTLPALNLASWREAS
Briefly: MPO inhibition screen (TMB oxidation, with or without added tyrosine). To be noted: in the presence of tyrosine. The format is biochemical. The method, then:
Methods for the determination of MPO inhibitory activity are disclosed in patent application WO 02/090575. The pharmacological activity of compounds according to the invention was tested in the following screen in which the compounds were either tested alone or in the presence of added tyrosine:
Assay buffer: 20 mM sodium/potassium phosphate buffer pH 6.5 containing 10 mM taurine and 100 mM NaCl.
Developing reagent: 2 mM 3,3′,5,5′-tetramethylbenzidine (TMB), 200 μM KI, 200 mM acetate buffer pH 5.4 with 20% DMF.
To 10 μl of diluted compounds in assay buffer, 40 μl of human MPO (final concentration […]), with or without 20 μM tyrosine (final concentration, if present, 8 μM), was added and the mixture was incubated for 10 minutes at ambient temperature. Then 50 μl of H2O2 (final concentration 100 μM), or assay buffer alone as a control, were added. After incubation for 10 minutes at ambient temperature, the reaction was stopped by adding 10 μl 0.2 mg/ml of catalase (final concentration 18 μg/ml). The reaction mixture was left for an additional 5 minutes before 100 μl of TMB developing reagent was added. The amount of oxidised 3,3′,5,5′-tetramethylbenzidine formed was then measured after about 5 minutes using absorbance spectroscopy at about […]. IC50 values were then determined using standard procedures.

Molecules are shown by their SMILES.

Take `CCOC(C)Cn1c(=S)[nH]c(=O)c2[nH]cnc21` (racemic) [Example 5, 3-(2-Ethoxy-propyl)-2-thioxanthine]: the IC50 (usually the concentration that gives 50% inhibition) stood at 500 nM.
